Measurements taken from patent US20240109865A1, “INDAZOLE COMPOUNDS AS KINASE INHIBITORS” (TYRA BIOSCIENCES, INC., priority 2020, published 2024).

Columns and labels:
Assay in all cases: Kinase assay, binding constants (Kd), kinase-tagged T7 phage, qPCR
FGFR1 = FGFR1 (Homo sapiens (Human), UniProt P11362)
How it was run: (§1)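 Using T7 phage lysates from BL21-derived E. coli, compounds at 0.9% final DMSO competed for kinase binding to ligand-bearing magnetic beads. After elution, qPCR measured remaining kinase, and Kds were fitted by non-linear least squares with the Hill slope fixed at −1.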

FGFR3 = FGFR3 (Homo sapiens (Human), UniProt P22607)
How it was run: as §1

FGFR4 = FGFR4 (Homo sapiens (Human), UniProt P22455)
How it was run: as §1

FGFR3 (V555M) = FGFR3 (V555M) (Homo sapiens (Human), UniProt P22607, V555M); conditions: V555M mutant
How it was run: as §1

FGFR2 = FGFR2 (Homo sapiens (Human), UniProt P21802)
How it was run: as §1

Sequence of FGFR4 (P22455 22-802): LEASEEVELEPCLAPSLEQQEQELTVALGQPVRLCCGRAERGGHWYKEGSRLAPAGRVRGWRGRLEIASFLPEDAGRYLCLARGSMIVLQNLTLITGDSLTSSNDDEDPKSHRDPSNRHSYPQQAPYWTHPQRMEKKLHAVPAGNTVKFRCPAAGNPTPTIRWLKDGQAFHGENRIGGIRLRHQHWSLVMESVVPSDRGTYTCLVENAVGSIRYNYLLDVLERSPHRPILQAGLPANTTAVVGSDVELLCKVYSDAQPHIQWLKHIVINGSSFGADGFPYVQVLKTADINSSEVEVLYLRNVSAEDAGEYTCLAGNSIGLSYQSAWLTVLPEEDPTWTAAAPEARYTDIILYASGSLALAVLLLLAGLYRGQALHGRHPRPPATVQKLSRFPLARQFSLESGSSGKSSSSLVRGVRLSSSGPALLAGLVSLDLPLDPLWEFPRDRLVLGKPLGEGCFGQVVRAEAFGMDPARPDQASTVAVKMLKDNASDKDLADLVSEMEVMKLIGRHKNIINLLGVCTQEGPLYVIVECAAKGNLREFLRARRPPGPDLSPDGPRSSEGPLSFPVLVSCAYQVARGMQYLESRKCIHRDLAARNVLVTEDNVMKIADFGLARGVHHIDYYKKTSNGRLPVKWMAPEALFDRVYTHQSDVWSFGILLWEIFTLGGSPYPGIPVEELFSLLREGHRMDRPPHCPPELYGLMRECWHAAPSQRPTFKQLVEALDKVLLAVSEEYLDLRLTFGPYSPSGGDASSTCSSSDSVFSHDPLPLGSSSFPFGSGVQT
Sequence of FGFR3 (P22607 23-806): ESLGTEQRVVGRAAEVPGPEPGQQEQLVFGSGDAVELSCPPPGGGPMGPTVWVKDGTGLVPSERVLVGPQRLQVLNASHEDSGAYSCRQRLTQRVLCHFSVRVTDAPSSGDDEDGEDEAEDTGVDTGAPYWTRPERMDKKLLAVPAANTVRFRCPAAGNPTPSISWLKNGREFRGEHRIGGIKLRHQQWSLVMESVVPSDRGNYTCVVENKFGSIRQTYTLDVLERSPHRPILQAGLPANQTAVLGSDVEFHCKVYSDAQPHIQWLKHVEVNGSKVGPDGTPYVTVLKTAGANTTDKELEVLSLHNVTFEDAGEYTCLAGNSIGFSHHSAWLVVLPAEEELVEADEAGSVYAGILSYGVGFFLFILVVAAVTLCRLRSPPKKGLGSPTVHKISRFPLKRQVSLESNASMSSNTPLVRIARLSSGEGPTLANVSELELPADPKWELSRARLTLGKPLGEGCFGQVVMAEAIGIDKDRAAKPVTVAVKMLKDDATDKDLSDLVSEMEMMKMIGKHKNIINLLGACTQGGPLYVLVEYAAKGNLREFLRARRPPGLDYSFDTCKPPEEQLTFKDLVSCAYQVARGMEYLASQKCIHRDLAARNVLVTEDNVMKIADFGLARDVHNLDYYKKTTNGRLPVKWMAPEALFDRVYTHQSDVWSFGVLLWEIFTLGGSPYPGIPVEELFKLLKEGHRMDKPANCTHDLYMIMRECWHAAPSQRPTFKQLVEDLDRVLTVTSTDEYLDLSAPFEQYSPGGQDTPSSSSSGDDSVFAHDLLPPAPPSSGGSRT
Sequence of FGFR2 (P21802 22-821): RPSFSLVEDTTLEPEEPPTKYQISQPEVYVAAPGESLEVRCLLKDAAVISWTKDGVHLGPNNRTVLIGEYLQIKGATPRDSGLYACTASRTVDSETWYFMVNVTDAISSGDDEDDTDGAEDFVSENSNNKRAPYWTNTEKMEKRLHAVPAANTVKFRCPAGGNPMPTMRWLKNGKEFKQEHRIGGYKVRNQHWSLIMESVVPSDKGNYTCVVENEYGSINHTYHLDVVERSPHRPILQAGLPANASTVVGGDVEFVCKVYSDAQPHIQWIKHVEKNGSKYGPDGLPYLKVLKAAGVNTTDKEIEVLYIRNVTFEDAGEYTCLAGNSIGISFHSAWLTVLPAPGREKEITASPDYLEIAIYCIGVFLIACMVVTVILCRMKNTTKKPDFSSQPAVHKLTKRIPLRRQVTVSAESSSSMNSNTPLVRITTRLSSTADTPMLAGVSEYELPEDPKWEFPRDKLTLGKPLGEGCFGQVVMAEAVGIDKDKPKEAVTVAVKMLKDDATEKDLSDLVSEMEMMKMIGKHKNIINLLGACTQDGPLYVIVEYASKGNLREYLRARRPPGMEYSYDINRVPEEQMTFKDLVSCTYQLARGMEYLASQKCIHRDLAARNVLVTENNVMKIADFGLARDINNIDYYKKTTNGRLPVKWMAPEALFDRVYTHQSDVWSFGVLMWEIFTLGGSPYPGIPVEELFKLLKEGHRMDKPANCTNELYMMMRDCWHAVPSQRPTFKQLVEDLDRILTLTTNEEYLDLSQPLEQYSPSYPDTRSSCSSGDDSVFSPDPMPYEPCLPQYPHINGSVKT
Sequence of FGFR3 (V555M) (P22607 23-806 V555M): as the sequence (P22607 23-806) above, with V533M counted along it
Sequence of FGFR1 (P11362 22-822): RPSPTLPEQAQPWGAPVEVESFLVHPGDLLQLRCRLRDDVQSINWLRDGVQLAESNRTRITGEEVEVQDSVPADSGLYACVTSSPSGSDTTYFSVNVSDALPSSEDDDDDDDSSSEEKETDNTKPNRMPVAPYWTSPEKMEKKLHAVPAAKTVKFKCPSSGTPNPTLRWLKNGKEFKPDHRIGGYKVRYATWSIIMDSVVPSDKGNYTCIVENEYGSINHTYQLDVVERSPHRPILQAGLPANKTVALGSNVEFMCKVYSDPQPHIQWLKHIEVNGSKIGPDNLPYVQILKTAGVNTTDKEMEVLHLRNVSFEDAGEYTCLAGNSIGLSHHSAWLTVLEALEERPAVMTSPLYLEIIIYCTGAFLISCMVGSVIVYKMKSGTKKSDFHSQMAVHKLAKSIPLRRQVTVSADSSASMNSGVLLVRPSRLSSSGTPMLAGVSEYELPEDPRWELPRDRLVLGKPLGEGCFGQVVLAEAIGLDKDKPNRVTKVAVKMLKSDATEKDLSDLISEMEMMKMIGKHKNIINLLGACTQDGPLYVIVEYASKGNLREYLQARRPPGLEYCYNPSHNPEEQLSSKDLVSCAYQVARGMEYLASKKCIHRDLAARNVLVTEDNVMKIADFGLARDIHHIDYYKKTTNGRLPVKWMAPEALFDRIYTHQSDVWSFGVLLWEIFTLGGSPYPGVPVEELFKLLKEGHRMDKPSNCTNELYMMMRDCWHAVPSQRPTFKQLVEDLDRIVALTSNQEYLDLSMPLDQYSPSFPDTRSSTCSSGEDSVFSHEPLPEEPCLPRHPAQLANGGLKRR

Structure (SMILES) | Kd (FGFR1) [nM] | Kd (FGFR3) [nM] | Kd (FGFR4) [nM] | Kd (FGFR3 (V555M)) [nM] | Kd (FGFR2) [nM]
Cc1cnnc(C)c1[C@H](C)Oc1ccc2[nH]nc(-c3cnc(N4CCC5(CC4)CCS(=O)(=O)C5)nc3)c2c1 [Example 154, 8-[5-[5-[(1S)-1-(3,5-dimethylpyridazin-4-yl)ethoxy]-1H-indazol-3-yl]pyrimidin-2-yl]-2λ^6-thia-8-azaspiro[4.5]decane 2,2-dioxide] | > 300 | 100 to 300 | 100 to 300 | 20 to 100 | > 300
Cc1ncc(Cl)c([C@@H](C)Oc2ccc3[nH]nc(-c4ccc(N5CC6(CCCO6)C5)nc4)c3c2)c1Cl [Example 226, 2-[5-[5-[(1R)-1-(3,5-dichloro-2-methyl-4-pyridyl)ethoxy]-1H-indazol-3-yl]-2-pyridyl]-5-oxa-2-azaspiro[3.4]octane] | 20 to 100 | 1 to 20 | 20 to 100 | 1 to 20 | 20 to 100
C[C@@H](Oc1ccc2[nH]nc(-c3ccc(N4CC5(CCCNC5)C4)nc3)c2c1)c1c(Cl)cncc1Cl [Example 161, 3-[6-(2,8-diazaspiro[3.5]nonan-2-yl)-3-pyridyl]-5-[(1R)-1-(3,5-dichloro-4-pyridyl)ethoxy]-1H-indazole] | 1 to 20 | 1 to 20 | 1 to 20 | 1 to 20 | 1 to 20
C[C@@H](Oc1ccc2[nH]nc(-c3cnc(N4CC(C(F)F)C4)c(C#N)c3)c2c1)c1c(Cl)cncc1Cl [Example 345, (R)-5-(5-(1-(3,5-dichloropyridin-4-yl)ethoxy)-1H-indazol-3-yl)-2-(3-(difluoromethyl)azetidin-1-yl)nicotinonitrile] | > 300 | 20 to 100 | 1 to 20 | 20 to 100 | > 300
C[C@@H](Oc1ccc2[nH]nc(-c3ccc(N4CCN5CCC[C@H]5C4)nc3)c2c1)c1c(Cl)cncc1Cl [Example 183, 3-[6-[(8aS)-3,4,6,7,8,8a-hexahydro-1H-pyrrolo[1,2-a]pyrazin-2-yl]-3-pyridyl]-5-[(1R)-1-(3,5-dichloro-4-pyridyl)ethoxy]-1H-indazole] | 1 to 20 | 1 to 20 | 1 to 20 | 1 to 20 | 1 to 20
Cc1cnnc(C)c1[C@@H](C)Oc1ccc2[nH]nc(-c3cnc(N4CC5CC(C4)N5CC(C)(C)O)c(C#N)c3)c2c1 [Example 312, 5-(5-((R)-1-(3,5-dimethylpyridazin-4-yl)ethoxy)-1H-indazol-3-yl)-2-(6-(2-hydroxy-2-methylpropyl)-3,6-diazabicyclo[3.1.1]heptan-3-yl)nicotinonitrile] | 1 to 20 | 1 to 20 | 1 to 20 | 1 to 20 | 1 to 20
C[C@@H](Oc1ccc2[nH]nc(-c3cnc(N4CC(C#N)C4)c(C#N)c3)c2c1)c1c(Cl)cncc1Cl [Example 348, (R)-2-(3-cyanoazetidin-1-yl)-5-(5-(1-(3,5-dichloropyridin-4-yl)ethoxy)-1H-indazol-3-yl)nicotinonitrile] | 20 to 100 | 1 to 20 | 1 to 20 | 1 to 20 | > 300
COc1cc2[nH]nc(-c3cnc(N4CC5(C4)CN(S(C)(=O)=O)C5)c(C#N)c3)c2cc1O[C@H](C)c1c(Cl)cnc(C)c1Cl [Example 341, 5-[5-[(1R)-1-(3,5-dichloro-2-methyl-4-pyridyl)ethoxy]-6-methoxy-1H-indazol-3-yl]-2-(2-methylsulfonyl-2,6-diazaspiro[3.3]heptan-6-yl)pyridine-3-carbonitrile] | 20 to 100 | 1 to 20 | 1 to 20 | 1 to 20 | 20 to 100
COc1cc2[nH]nc(-c3cnc(N4CC(O)C4)c(C#N)c3)c2cc1O[C@H](C)c1c(C)cnnc1C [Example 320, (R)-5-(5-(1-(3,5-dimethylpyridazin-4-yl)ethoxy)-6-methoxy-1H-indazol-3-yl)-2-(3-hydroxyazetidin-1-yl)nicotinonitrile] | 20 to 100 | 20 to 100 | 1 to 20 | 1 to 20 | 20 to 100
C[C@@H](Oc1cc2c(-c3cnc(N4CC5(CCCN(S(C)(=O)=O)C5)C4)c(C#N)c3)n[nH]c2cc1F)c1c(Cl)cncc1Cl [Example 380, 5-[5-[(1R)-1-(3,5-dichloro-4-pyridyl)ethoxy]-6-fluoro-1H-indazol-3-yl]-2-(8-methylsulfonyl-2,8-diazaspiro[3.5]nonan-2-yl)pyridine-3-carbonitrile] | 100 to 300 | 20 to 100 | 1 to 20 | 20 to 100 | > 300
Cc1cc(-c2n[nH]c3ccc(O[C@H](C)c4c(C)cnnc4C)cc23)cnc1N1CCN2C(=O)NCC2C1 (stereo partly drawn) [Example 231, 7-(5-(5-((R)-1-(3,5-dimethylpyridazin-4-yl)ethoxy)-1H-indazol-3-yl)-3-methylpyridin-2-yl)hexahydroimidazo[1,5-a]pyrazin-3(2H)-one] | 20 to 100 | 1 to 20 | 1 to 20 | 1 to 20 | 1 to 20
C[C@@H](Oc1ccc2[nH]nc(-c3cnc(N4CCC4)c(C#N)c3)c2c1)c1c(Cl)cnc(F)c1Cl [Example 286, (R)-2-(azetidin-1-yl)-5-(5-(1-(3,5-dichloro-2-fluoropyridin-4-yl)ethoxy)-1H-indazol-3-yl)nicotinonitrile] | > 300 | > 300 | 100 to 300 | > 300 | > 300
CNCc1cc(-c2n[nH]c3ccc(O[C@H](C)c4c(Cl)cncc4Cl)cc23)cnc1N1CC2(C1)CN(S(C)(=O)=O)C2 [Example 368, (R)-1-(5-(5-(1-(3,5-dichloropyridin-4-yl)ethoxy)-1H-indazol-3-yl)-2-(6-(methylsulfonyl)-2,6-diazaspiro[3.3]heptan-2-yl)pyridin-3-yl)-N-methylmethanamine] | > 300 | > 300 | 100 to 300 | 100 to 300 | > 300
COC(=O)N1CC2(C1)CN(c1ccc(-c3n[nH]c4ccc(O[C@@H](C)c5c(C)cnnc5C)cc34)cn1)C2 [Example 153, methyl 6-[5-[5-[(1S)-1-(3,5-dimethylpyridazin-4-yl)ethoxy]-1H-indazol-3-yl]-2-pyridyl]-2,6-diazaspiro[3.3]heptane-2-carboxylate] | > 300 | 20 to 100 | 100 to 300 | 1 to 20 | 100 to 300
C[C@@H](Oc1ccc2[nH]nc(-c3cnc(N4CC(F)(F)C4)c(C#N)c3)c2c1)c1c(Cl)cncc1Cl [Example 353, (R)-5-(5-(1-(3,5-dichloropyridin-4-yl)ethoxy)-1H-indazol-3-yl)-2-(3,3-difluoroazetidin-1-yl)nicotinonitrile] | > 300 | 20 to 100 | 1 to 20 | 20 to 100 | > 300
Cc1ncc(Cl)c([C@@H](C)Oc2ccc3[nH]nc(-c4ccc(N5CC6(CC(O)C6)C5)nc4)c3c2)c1Cl [Example 227, 2-[5-[5-[(1R)-1-(3,5-dichloro-2-methyl-4-pyridyl)ethoxy]-1H-indazol-3-yl]-2-pyridyl]-2-azaspiro[3.3]heptan-6-ol] | 20 to 100 | 1 to 20 | 1 to 20 | 1 to 20 | 1 to 20
Cc1ncc(Cl)c([C@@H](C)Oc2ccc3[nH]nc(-c4cnc(N5CC6(CNC6)C5)nc4)c3c2)c1Cl [Example 179, 3-[2-(2,6-diazaspiro[3.3]heptan-2-yl)pyrimidin-5-yl]-5-[(1R)-1-(3,5-dichloro-2-methyl-4-pyridyl)ethoxy]-1H-indazole] | 20 to 100 | 1 to 20 | 1 to 20 | 1 to 20 | 20 to 100
C[C@@H](Oc1ccc2[nH]nc(-c3ccc(N4CC5(CCNC5)C4)nc3)c2c1)c1c(Cl)cncc1Cl [Example 164, 3-[6-(2,7-diazaspiro[3.4]octan-2-yl)-3-pyridyl]-5-[(1R)-1-(3,5-dichloro-4-pyridyl)ethoxy]-1H-indazole] | 1 to 20 | 1 to 20 | 1 to 20 | 1 to 20 | 1 to 20
COc1cc2[nH]nc(-c3cnc(N4CC(C)(C)C4)c(S(C)(=O)=O)c3)c2cc1O[C@H](C)c1c(Cl)cncc1Cl [Example 376, (R)-5-(1-(3,5-dichloropyridin-4-yl)ethoxy)-3-(6-(3,3-dimethylazetidin-1-yl)-5-(methylsulfonyl)pyridin-3-yl)-6-methoxy-1H-indazole] | > 300 | 20 to 100 | 1 to 20 | 20 to 100 | 100 to 300
C[C@@H](Oc1ccc2[nH]nc(-c3ccc(N4CC5(C4)CN(S(C)(=O)=O)C5)nc3)c2c1)c1c(Cl)cnnc1Cl [Example 246, (R)-5-(1-(3,5-dichloropyridazin-4-yl)ethoxy)-3-(6-(6-(methylsulfonyl)-2,6-diazaspiro[3.3]heptan-2-yl)pyridin-3-yl)-1H-indazole] | 1 to 20 | 1 to 20 | 1 to 20 | 1 to 20 | 1 to 20
C[C@@H](Oc1cc2c(-c3cnc(N4CC5(C4)CN(S(C)(=O)=O)C5)c(F)c3)n[nH]c2cc1F)c1c(Cl)cnnc1Cl [Example 258, (R)-5-(1-(3,5-dichloropyridazin-4-yl)ethoxy)-6-fluoro-3-(5-fluoro-6-(6-(methylsulfonyl)-2,6-diazaspiro[3.3]heptan-2-yl)pyridin-3-yl)-1H-indazole] | 1 to 20 | 1 to 20 | 1 to 20 | 1 to 20 | 1 to 20
C[C@@H](Oc1ccc2[nH]nc(-c3ccc(N4CC5(CCNCC5)C4)nc3)c2c1)c1c(Cl)cncc1Cl [Example 110, 3-[6-(2,7-diazaspiro[3.5]nonan-2-yl)-3-pyridyl]-5-[(1R)-1-(3,5-dichloro-4-pyridyl)ethoxy]-1H-indazole] | 1 to 20 | 1 to 20 | 1 to 20 | 1 to 20 | 1 to 20
